Assay results reported in patent US12459922B2 (Gilead Sciences, Inc., priority 2022, dated 2025).

Each molecule was assayed on endogenous cellular STAT1 (phosphorylated at Tyr701) in NCI-H1373 cells (assay: Phospho-STAT1 (Tyr701) LANCE Ultra TR-FRET Detection Assay). Details: Homo sapiens, NCI-H1373, 48 h, phospho-STAT1 (Tyr701) induction, read-out: NH1373 pSTAT1 EC50.
Format: cell-based

EC50 | Compound
25.1 nM | Nc1nc(-c2cc3ccn(C[C@@H]4CC[C@H](Nc5cn[nH]c(=O)c5C(F)(F)F)C4)c(=O)c3cc2F)ncc1C(F)(F)F [Example 444, 6-(4-amino-5-(trifluoromethyl)pyrimidin-2-yl)-7-fluoro-2-(((1R,3S)-3-((6-oxo-5-(trifluoromethyl)-1,6-dihydropyridazin-4-yl)amino)cyclopentyl)methyl)isoquinolin-1(2H)-one]
18.5 nM | C[C@H](Nc1cn[nH]c(=O)c1C(F)(F)F)[C@H](O)CCn1ccc2cc(-c3ncc(C(F)(F)F)cn3)c(F)cc2c1=O [Example 445, 7-fluoro-2-((3R,4S)-3-hydroxy-4-((6-oxo-5-(trifluoromethyl)-1,6-dihydropyridazin-4-yl)amino)pentyl)-6-(5-(trifluoromethyl)pyrimidin-2-yl)isoquinolin-1(2H)-one]
270 nM | O=c1[nH]ncc(N[C@@H]2CC[C@H](Cn3ccc4cc(-c5ncc(C(F)(F)F)cn5)c(F)cc4c3=O)C2)c1C(F)(F)F [Example 446, 7-fluoro-2-(((1S,3R)-3-((6-oxo-5-(trifluoromethyl)-1,6-dihydropyridazin-4-yl)amino)cyclopentyl)methyl)-6-(5-(trifluoromethyl)pyrimidin-2-yl)isoquinolin-1(2H)-one]
25.6 nM | Nc1nc(-c2cc3ccn(C[C@H]4CC[C@@H](Nc5cn[nH]c(=O)c5C(F)(F)F)C4)c(=O)c3cc2F)ncc1C(F)(F)F [Example 447, 6-(4-amino-5-(trifluoromethyl)pyrimidin-2-yl)-7-fluoro-2-(((1S,3R)-3-((6-oxo-5-(trifluoromethyl)-1,6-dihydropyridazin-4-yl)amino)cvclopentyl)methyl)isoquinolin-1(2H)-one]
6.82 nM | O=c1[nH]ncc(N[C@H]2CCC[C@@H]2CCn2cnc3cc(-c4ncc(Cl)cn4)c(F)cc3c2=O)c1C(F)(F)F [Example 448, 7-(5-chloropyrimidin-2-yl)-6-fluoro-3-(2-((1R,2S)-2-((6-oxo-5-(trifluoromethyl)-1,6-dihydropyridazin-4-yl)amino)cyclopentyl)ethyl)quinazolin-4(3H)-one]
6.42 nM | Nc1nc(-c2cc3ncn(CC[C@H]4CCC[C@@H]4Nc4cn[nH]c(=O)c4C(F)(F)F)c(=O)c3cc2F)ncc1Cl [Example 449, 7-(4-amino-5-chloropyrimidin-2-yl)-6-fluoro-3-(2-((1R,2S)-2-((6-oxo-5-(trifluoromethyl)-1,6-dihydropyridazin-4-yl)amino)cyclopentyl)ethyl)quinazolin-4(3H)-one]
11.4 nM | O=c1[nH]ncc(N[C@H]2CCCC[C@@H]2CCn2ccc3cc(-c4ncc(C(F)(F)F)cn4)c(F)cc3c2=O)c1C(F)(F)F [Example 450, 7-fluoro-2-[2-[(1R,2S)-2-[[6-oxo-5-(trifluoromethyl)-1H-pyridazin-4-yl]amino]cyclohexyl]ethyl]-6-[5-(trifluoromethyl)pyrimidin-2-yl]isoquinolin-1-one]
4.76 nM | Nc1nc(-c2cc3ccn(CC[C@H]4CCCC[C@@H]4Nc4cn[nH]c(=O)c4C(F)(F)F)c(=O)c3cc2F)ncc1C(F)(F)F [Example 451, 6-[4-amino-5-(trifluoromethyl)pyrimidin-2-yl]-7-fluoro-2-[2-[(1R,2S)-2-[[6-oxo-5-(trifluoromethyl)-1H-pyridazin-4-yl]amino]cyclohexyl]ethyl]isoquinolin-1-one]
35.9 nM | O=c1[nH]ncc(N[C@H]2CC[C@@H]2CCn2cnc3cc(-c4ncc(C(F)(F)F)cn4)c(F)cc3c2=O)c1C(F)(F)F [Example 452, 6-fluoro-3-[2-[(1R,2S)-2-[[6-oxo-5-(trifluoromethyl)-1H-pyridazin-4-yl]amino]cyclobutyl]ethyl]-7-[5-(trifluoromethyl)pyrimidin-2-yl]quinazolin-4-one]
215 nM | O=c1[nH]ncc(N[C@H](CCCn2ccc3cc(-c4ncc(C(F)(F)F)cn4)c(F)cc3c2=O)CC(F)(F)F)c1C(F)(F)F [Example 453, (R)-7-fluoro-2-(6,6,6-trifluoro-4-((6-oxo-5-(trifluoromethyl)-1,6-dihydropyridazin-4-yl)amino)hexyl)-6-(5-(trifluoromethyl)pyrimidin-2-yl)isoquinolin-1(2H)-one]
7.48 nM | O=c1[nH]ncc(O[C@H]2CCC[C@@H](Cn3ccc4cc(-c5ncc(C(F)(F)F)cn5)c(F)cc4c3=O)C2)c1C(F)(F)F [Example 454, 7-fluoro-2-(((1R,3S)-3-((6-oxo-5-(trifluoromethyl)-1,6-dihydropyridazin-4-yl)oxy)cyclohexyl)methyl)-6-(5-(trifluoromethyl)pyrimidin-2-yl)isoquinolin-1(2H)-one]
38.2 nM | Nc1nc(-c2cc3ccn(C[C@@H]4CCC[C@H](Oc5cn[nH]c(=O)c5C(F)(F)F)C4)c(=O)c3cc2F)ncc1C(F)(F)F [Example 455, 6-(4-amino-5-(trifluoromethyl)pyrimidin-2-yl)-7-fluoro-2-(((1R,3S)-3-((6-oxo-5-(trifluoromethyl)-1,6-dihydropyridazin-4-yl)oxy)cyclohexyl)methyl)isoquinolin-1(2H)-one]
48 nM | O=c1[nH]ncc(O[C@H]2CCC[C@@H](Cn3ccc4cc(-c5ncc(C(F)F)cn5)c(F)cc4c3=O)C2)c1C(F)(F)F [Example 456, 6-(5-(difluoromethyl)pyrimidin-2-yl)-7-fluoro-2-(((1R,3S)-3-((6-oxo-5-(trifluoromethyl)-1,6-dihydropyridazin-4-yl)oxy)cyclohexyl)methyl)isoquinolin-1(2H)-one]
10.6 nM | O=c1[nH]ncc(O[C@H]2CCC[C@@H](Cn3cnc4cc(-c5ncc(C(F)F)cn5)c(F)cc4c3=O)C2)c1C(F)(F)F [Example 457, 7-(5-(difluoromethyl)pyrimidin-2-yl)-6-fluoro-3-(((1R,3S)-3-((6-oxo-5-(trifluoromethyl)-1,6-dihydropyridazin-4-yl)oxy)cyclohexyl)methyl)quinazolin-4(3H)-one]
2940 nM | O=c1[nH]ncc(N[C@H]2CCC[C@@H](Cn3cnc4cc(-c5ncc(C(F)(F)F)c(Br)n5)c(F)cc4c3=O)C2)c1C(F)(F)F [Example 458, 7-(4-bromo-5-(trifluoromethyl)pyrimidin-2-yl)-6-fluoro-3-(((1R,3S)-3-((6-oxo-5-(trifluoromethyl)-1,6-dihydropyridazin-4-yl)amino)cyclohexyl)methyl)quinazolin-4(3H)-one]
12.2 nM | O=c1[nH]ncc(N[C@H]2CCC[C@@H](Cn3cc(Br)c4cc(-c5ncc(C(F)(F)F)cn5)c(F)cc4c3=O)C2)c1C(F)(F)F [Example 459, 4-bromo-7-fluoro-2-(((1R,3S)-3-((6-oxo-5-(trifluoromethyl)-1,6-dihydropyridazin-4-yl)amino)cyclohexyl)methyl)-6-(5-(trifluoromethyl)pyrimidin-2-yl)isoquinolin-1(2H)-one]
69.9 nM | Nc1nc(-c2cc3ncn(CCC[C@@H](Nc4cn[nH]c(=O)c4C(F)(F)F)C4CC4)c(=O)c3cc2F)cnc1C(F)(F)F [Example 460, (R)-7-(6-amino-5-(trifluoromethyl)pyrazin-2-yl)-3-(4-cyclopropyl-4-((6-oxo-5-(trifluoromethyl)-1,6-dihydropyridazin-4-yl)amino)butyl)-6-fluoroquinazolin-4(3H)-one]
15.1 nM | Nc1nc(-c2cc3ncn(CCC[C@@H](Nc4cn[nH]c(=O)c4C(F)(F)F)C4CC4)c(=O)c3cc2F)ncc1Cl [Example 461, (R)-7-(4-amino-5-chloropyrimidin-2-yl)-3-(4-cyclopropyl-4-((6-oxo-5-(trifluoromethyl)-1,6-dihydropyridazin-4-yl)amino)butyl)-6-fluoroquinazolin-4(3H)-one]
